{"source": "patent US20190031717A1", "about": "“MULTI-FUNCTIONAL FUSION POLYPEPTIDE, PREPARATION METHOD THEREOF, AND APPLICATION OF SAME” (NANJING ANJI BIOLOGICAL TECHNOLOGY CO., LTD, priority 2016, published 2019)", "parameters_in_all_cases": "concentration or dose not given beside the values", "key": {"Mycoplasma pneumoniae": {"test_system": "Mycoplasma pneumoniae", "experiment": "Mouse pneumonia model, mycoplasma", "format": "in vivo, BALB/C mice", "conditions": "mean ± SD", "experimental": "(§1) The mouse pneumonia model was successfully established by the nose-drop method. To build the mouse pneumonia model, BALB/C mice with a body mass of 16-22 g were selected and anesthetized pneumonia chain was prepared after anesthesia with ether on day 0, day 1, and day 2. Staphylococcal fluid, adenovirus concentrate, Mycoplasma pneumoniae, Chlamydia pneumoniae, protozoa, and pneumonia fungi were slowly dripped into the nasal cavity of the mice, so that they enter the tracheobronchial. During the operation process, care was exercised to prevent bacterial fluid from flowing into the esophagus, which leads to inactivation the bacterial fluid. After successful model establishment, the polypeptides of the present invention were administered, and the results were shown in Table 5. […] The results were expressed in average value±standard deviation."}, "pneumonia fungi": {"test_system": "pneumonia fungi", "experiment": "Mouse pneumonia model, fungal", "format": "in vivo, BALB/C mice", "conditions": "mean ± SD", "experimental": "as §1"}, "Bladder Cancer": {"test_system": "Bladder Cancer", "experiment": "MTT assay, tumor cells", "format": "cell-based, human", "conditions": "48 hours, mean ± SD", "experimental": "(§2) A variety of human tumor cells were cultured in a 37° C., 5% (volume fraction) CO2 incubator to a density of 90% or more, collected by trypsinization, resuspended in a culture medium and counted under a microscope, and the cells were harvested. The concentration was adjusted to 2.0×10^4 cells/mL, the cell suspension was inoculated into a 96-well plate at 100 μL per well and cultured overnight at 37° C. in a 5% (volume fraction) CO2 incubator. After the cells were completely adhered, the polypeptides of the present invention were added as drug-administered groups, and a culture solution containing no drug was used as a blank control group, and the culture solution was diluted to each predetermined concentration. Each dilution was separately added to a 96-well plate at 100 μL per well and incubated for 48 hours at 37° C. in a 5% (volume fraction) CO2 incubator. 20 μL of 5 mg/mL MTT was added to each well of a 96-well plate and incubation was continued for 4 h. The medium was aspirated and dissolved in 100 μL of DMSO per well. The absorbance was measured with a microplate reader at a detection wavelength of 570 nm and a reference wavelength of 630 nm, and the growth inhibition rate was calculated as follows: tumor growth inhibition rate (%)=(1−absorbance value of the administered group/unadministered group absorbance value)×100%, and the experiment was repeated 3 times independently. The results obtained from the test were expressed as mean±standard deviation, and the tumor growth inhibition rate of the unadministered group was 0. The results in Table 7 indicate that the polypeptides of the present invention have a significant inhibitory effect on the growth of various tumors (FIG. 6)."}, "Brain tumor": {"test_system": "Brain tumor", "experiment": "MTT assay, tumor cells", "format": "cell-based, human", "conditions": "48 hours, mean ± SD", "experimental": "as §2"}, "Breast cancer": {"test_system": "Breast cancer", "experiment": "MTT assay, tumor cells", "format": "cell-based, human", "conditions": "48 hours, mean ± SD", "experimental": "as §2"}, "Cervical cancer": {"test_system": "Cervical cancer", "experiment": "MTT assay, tumor cells", "format": "cell-based, human", "conditions": "48 hours, mean ± SD", "experimental": "as §2"}, "Colorectal cancer": {"test_system": "Colorectal cancer", "experiment": "MTT assay, tumor cells", "format": "cell-based, human", "conditions": "48 hours, mean ± SD", "experimental": "as §2"}, "Esophageal cancer": {"test_system": "Esophageal cancer", "experiment": "MTT assay, tumor cells", "format": "cell-based, human", "conditions": "48 hours, mean ± SD", "experimental": "as §2"}, "Gastric cancer": {"test_system": "Gastric cancer", "experiment": "MTT assay, tumor cells", "format": "cell-based, human", "conditions": "48 hours, mean ± SD", "experimental": "as §2"}, "Head and neck cancer": {"test_system": "Head and neck cancer", "experiment": "MTT assay, tumor cells", "format": "cell-based, human", "conditions": "48 hours, mean ± SD", "experimental": "as §2"}, "Hemangioma": {"test_system": "Hemangioma", "experiment": "MTT assay, tumor cells", "format": "cell-based, human", "conditions": "48 hours, mean ± SD", "experimental": "as §2"}, "Kidney cancer": {"test_system": "Kidney cancer", "experiment": "MTT assay, tumor cells", "format": "cell-based, human", "conditions": "48 hours, mean ± SD", "experimental": "as §2"}, "Liver cancer": {"test_system": "Liver cancer", "experiment": "MTT assay, tumor cells", "format": "cell-based, human", "conditions": "48 hours, mean ± SD", "experimental": "as §2"}, "Melanoma": {"test_system": "Melanoma", "experiment": "MTT assay, tumor cells", "format": "cell-based, human", "conditions": "48 hours, mean ± SD", "experimental": "as §2"}, "Ovarian cancer": {"test_system": "Ovarian cancer", "experiment": "MTT assay, tumor cells", "format": "cell-based, human", "conditions": "48 hours, mean ± SD", "experimental": "as §2"}, "Pancreatic cancer": {"test_system": "Pancreatic cancer", "experiment": "MTT assay, tumor cells", "format": "cell-based, human", "conditions": "48 hours, mean ± SD", "experimental": "as §2"}, "Prostate cancer": {"test_system": "Prostate cancer", "experiment": "MTT assay, tumor cells", "format": "cell-based, human", "conditions": "48 hours, mean ± SD", "experimental": "as §2"}, "Thyroid cancer": {"test_system": "Thyroid cancer", "experiment": "MTT assay, tumor cells", "format": "cell-based, human", "conditions": "48 hours, mean ± SD", "experimental": "as §2"}, "Uterine cancer": {"test_system": "Uterine cancer", "experiment": "MTT assay, tumor cells", "format": "cell-based, human", "conditions": "48 hours, mean ± SD", "experimental": "as §2"}, "sarcoma": {"test_system": "sarcoma", "experiment": "MTT assay, tumor cells", "format": "cell-based, human", "conditions": "48 hours, mean ± SD", "experimental": "as §2"}}, "data": [{"substance": "Pro-(D-Pyr)-(D-Cys)-Bip-Arg-Gly-Glu-Gly-Gly-Gly-Gly-Ile-Val-Arg-Arg-Ala-Asp-Arg-Ala-Ala-Val-Pro-Gly-Gly-Gly-Gly-Arg-Gly-Asp [Polypeptide I]", "values": [{"measurement": "Inhibitory Effects on Various Pulmonary Infections", "setting": "Mycoplasma pneumoniae", "value": "29.89 ± 12.97", "unit": "%"}, {"measurement": "Inhibitory Effects on Various Pulmonary Infections", "setting": "pneumonia fungi", "value": "43.91 ± 15.11", "unit": "%"}, {"measurement": "tumor growth inhibition rate, MTT Assay", "setting": "Bladder Cancer", "value": "38.69 ± 10.75", "unit": "%"}, {"measurement": "tumor growth inhibition rate, MTT Assay", "setting": "Brain tumor", "value": "51.00 ± 14.17", "unit": "%"}, {"measurement": "tumor growth inhibition rate, MTT Assay", "setting": "Breast cancer", "value": "68.27 ± 18.96", "unit": "%"}, {"measurement": "tumor growth inhibition rate, MTT Assay", "setting": "Cervical cancer", "value": "56.16 ± 22.27", "unit": "%"}, {"measurement": "tumor growth inhibition rate, MTT Assay", "setting": "Colorectal cancer", "value": "63.55 ± 17.65", "unit": "%"}, {"measurement": "tumor growth inhibition rate, MTT Assay", "setting": "Esophageal cancer", "value": "49.07 ± 13.63", "unit": "%"}, {"measurement": "tumor growth inhibition rate, MTT Assay", "setting": "Gastric cancer", "value": "48.41 ± 16.78", "unit": "%"}, {"measurement": "tumor growth inhibition rate, MTT Assay", "setting": "Head and neck cancer", "value": "36.22 ± 10.06", "unit": "%"}, {"measurement": "tumor growth inhibition rate, MTT Assay", "setting": "Hemangioma", "value": "76.08 ± 21.13", "unit": "%"}, {"measurement": "tumor growth inhibition rate, MTT Assay", "setting": "Kidney cancer", "value": "44.70 ± 15.75", "unit": "%"}, {"measurement": "tumor growth inhibition rate, MTT Assay", "setting": "Liver cancer", "value": "54.38 ± 15.11", "unit": "%"}, {"measurement": "tumor growth inhibition rate, MTT Assay", "setting": "Melanoma", "value": "42.41 ± 11.78", "unit": "%"}, {"measurement": "tumor growth inhibition rate, MTT Assay", "setting": "Ovarian cancer", "value": "67.74 ± 18.82", "unit": "%"}, {"measurement": "tumor growth inhibition rate, MTT Assay", "setting": "Pancreatic cancer", "value": "54.91 ± 18.59", "unit": "%"}, {"measurement": "tumor growth inhibition rate, MTT Assay", "setting": "Prostate cancer", "value": "60.28 ± 20.08", "unit": "%"}, {"measurement": "tumor growth inhibition rate, MTT Assay", "setting": "Thyroid cancer", "value": "46.70 ± 12.97", "unit": "%"}, {"measurement": "tumor growth inhibition rate, MTT Assay", "setting": "Uterine cancer", "value": "58.14 ± 19.48", "unit": "%"}, {"measurement": "tumor growth inhibition rate, MTT Assay", "setting": "sarcoma", "value": "49.18 ± 13.66", "unit": "%"}]}]}
